Assay results published in patent US7351742B2, “Sulfonamide derivatives for the treatment of diseases” (Pfizer Inc., priority 2004, dated 2008).

Biological target: T1, human β2 adrenergic receptor (Homo sapiens, UniProt P07550)
T1 construct: expressed in transfected cells; host or cells: CHO (Chinese Hamster Ovary) cells, CHOhβ2
Assay: β2 cAMP EC50 in CHO cells recombinantly expressing the human β2 adrenergic receptor (cAMP-Flashplate)
Assay type: cell-based
Details: CHOhβ2 cells, 1 hour incubation
Procedure: According to another alternative, the agonist potency for the β2 receptor of the compounds of the formula (1) may also be determined by the measure of the concentration of compound according to the present invention required to produce half maximal effect (EC50) for the β2 receptor.
10 mM/100% DMSO (dimethylsulfoxide) stock of compound is diluted to required top dose in 4% DMSO. This top dose is used to construct a 10-point semi-log dilution curve, all in 4% DMSO. Isoprenaline (Sigma, 1-5627) was used as a standard in every experiment and for control wells on each plate. Data was expressed as % Isoprenaline response.
CHO (Chinese Hamster Ovary) cells recombinantly expressing the human β2 adrenergic receptor (from Kobilka et al., PNAS 84: 46-50, 1987 and Bouvier et al., Mol Pharmacol 33: 133-139 1988 CHOhβ2) were grown in Dulbeccos MEM/NUT MIX F12 (Gibco, 21331-020) supplemented with 10% foetal bovine serum (Sigma, F4135, Lot 90K8404 Exp 09/04), 2 mM glutamine (Sigma, G7513), 500 μg/ml geneticin (Sigma, G7034) and 10 μg/ml puromycin (Sigma, P8833). Cells were seeded to give about 90% confluency for testing.
25 μl/well each dose of compound was transferred into a cAMP-Flashplate® (NEN, SMP004B), with […] as basal controls and 100 nM Isoprenaline as max controls. This was diluted 1:2 by the addition of 25 μl/well PBS. Cells were trypsinised (0.25% Sigma, T4049), washed with PBS (Gibco, 14040-174) and resuspended in stimulation buffer (NEN, SMP004B) to give 1×10^6 cells/ml CHOhB2. Compounds were incubated with 50 μl/well cells for 1 hour. Cells were then lysed by the addition of 100 μl/well detection buffer (NEN, SMP004B) containing 0.18 μCi/ml ^125I-cAMP (NEN, NEX-130) and plates were incubated at room temperature for a further 2 hours. The amount of ^125I-cAMP bound to the Flashplate® was quantified using a Topcount NXT (Packard), normal counting efficiency for 1 minute. Dose-response data was expressed as % Isoprenaline activity and fitted using a four parameter sigmoid fit.

T1 sequence (P07550 whole entry): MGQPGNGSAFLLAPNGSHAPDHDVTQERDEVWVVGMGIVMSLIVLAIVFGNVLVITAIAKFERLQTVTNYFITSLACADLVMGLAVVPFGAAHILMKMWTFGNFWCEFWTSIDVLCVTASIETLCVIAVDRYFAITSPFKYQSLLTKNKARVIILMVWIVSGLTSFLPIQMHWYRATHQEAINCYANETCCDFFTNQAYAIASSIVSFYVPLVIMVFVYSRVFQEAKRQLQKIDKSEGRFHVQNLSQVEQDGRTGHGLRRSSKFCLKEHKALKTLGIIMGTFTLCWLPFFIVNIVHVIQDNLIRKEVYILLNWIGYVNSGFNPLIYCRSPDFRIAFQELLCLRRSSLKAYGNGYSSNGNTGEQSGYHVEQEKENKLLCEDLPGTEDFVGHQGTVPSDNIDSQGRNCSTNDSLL

EC50 [nM] | Compound
0.02 | C[C@H](Cc1ccc(CC(=O)NCc2ccccc2)cc1)NC[C@H](O)c1ccc(O)c(NS(C)(=O)=O)c1 [Example 76, N-Benzyl-2-(4-{(2R)-2-[((2R)-2-hydroxy-2-{4-hydroxy-3-[(methylsulfonyl)amino]phenyl}ethyl)amino]propyl}phenyl)acetamide]
0.09 | CC(C)(Cc1cccc(CC(=O)NCCCc2ccccc2)c1)NC[C@H](O)c1ccc(O)c(NS(C)(=O)=O)c1 [Example 26, 2-(3-{2-[((2R)-2-Hydroxy-2-{4-hydroxy-3-[(methylsulfonyl)amino]phenyl}ethyl)amino]-2-methylpropyl}phenyl)-N-(3-phenylpropyl)acetamide]
0.08 | CC(C)(Cc1cccc(CC(=O)NCc2ccc(Cl)c(Cl)c2)c1)NC[C@H](O)c1ccc(O)c(NS(C)(=O)=O)c1 [Example 17, N-(3,4-Dichlorobenzyl)-2-(3-{2-[((2R)-2-hydroxy-2-{4-hydroxy-3-[(methylsulfonyl)amino]phenyl}ethyl)amino]-2-methylpropyl}phenyl)acetamide]
0.08 | CC(C)(Cc1ccc(CC(=O)NCc2cc(C(F)(F)F)ccc2Cl)cc1)NC[C@H](O)c1ccc(O)c(NS(C)(=O)=O)c1 [Example 67, N-[2-Chloro-5-(trifluoromethyl)benzyl]-2-(4-{2-[((2R)-2-hydroxy-2-{4-hydroxy-3-[(methylsulfonyl)amino]phenyl}ethyl)amino]-2-methylpropyl}phenyl)acetamide]
0.06 | Cc1ccc(CNC(=O)Cc2cccc(C[C@@H](C)NC[C@H](O)c3ccc(O)c(NS(C)(=O)=O)c3)c2)cc1C [Example 38, N-(3,4-Dimethylbenzyl)-2-(3-{(2R)-2-[((2R)-2-hydroxy-2-{4-hydroxy-3-[(methylsulfonyl)amino]phenyl}ethyl)amino]propyl}phenyl)acetamide]
0.07 | Cc1ccc(CNC(=O)Cc2cccc(CC(C)(C)NC[C@H](O)c3ccc(O)c(NS(C)(=O)=O)c3)c2)cc1 [Example 6, 2-(3-{2-[((2R)-2-hydroxy-2-{4-hydroxy-3-[(methylsulfonyl)amino]phenyl}ethyl)amino]-2-methylpropyl}phenyl)-N-(4-methylbenzyl)acetamide]
0.03 | CC(C)(Cc1cccc(CC(=O)NCc2ccc(F)cc2)c1)NC[C@H](O)c1ccc(O)c(NS(C)(=O)=O)c1 [Example 15, N-(4-Fluorobenzyl)-2-(3-{2-[((2R)-2-hydroxy-2-{4-hydroxy-3-[(methylsulfonyl)amino]phenyl}ethyl)amino]-2-methylpropyl}phenyl)acetamide]
0.02 | CC(C)(Cc1cccc(CC(=O)NCc2ccccc2)c1)NC[C@H](O)c1ccc(O)c(NS(C)(=O)=O)c1 [Example 1, N-Benzyl-2-(3-{2-[((2R)-2-hydroxy-2-{4-hydroxy-3-[(methylsulfonyl)amino]phenyl}ethyl)amino]-2-methylpropyl}phenyl)acetamide]
0.04 | CSc1ccccc1CNC(=O)Cc1cccc(CC(C)(C)NC[C@H](O)c2ccc(O)c(NS(C)(=O)=O)c2)c1 [Example 31, 2-(3-{2-[((2R)-2-Hydroxy-2-{4-hydroxy-3-[(methylsulfonyl)amino]phenyl}ethyl)amino]-2-methylpropyl}phenyl)-N-[2-(methylthio)benzyl]acetamide]
0.05 | CC(C)(Cc1cccc(CC(=O)NCc2ccc(Cl)cc2)c1)NC[C@H](O)c1ccc(O)c(NS(C)(=O)=O)c1 [Example 12, N-(4-Chlorobenzyl)-2-(3-{2-[((2R)-2-hydroxy-2-{4-hydroxy-3-[(methylsulfonyl)amino]phenyl}ethyl)amino]-2-methylpropyl}phenyl)acetamide]
0.05 | C[C@H](Cc1cccc(CC(=O)NCc2ccc(Cl)c(Cl)c2)c1)NC[C@H](O)c1ccc(O)c(NS(C)(=O)=O)c1 [Example 39, N-(3,4-Dichlorobenzyl)-2-(3-{(2R)-2-[((2R)-2-hydroxy-2-{4-hydroxy-3-[(methylsulfonyl)amino]phenyl}ethyl)amino]propyl}phenyl)acetamide]
0.08 | CC(C)(Cc1cccc(CC(=O)NCCc2ccccc2)c1)NC[C@H](O)c1ccc(O)c(NS(C)(=O)=O)c1 [Example 25, 2-(3-{2-[((2R)-2-Hydroxy-2-{4-hydroxy-3-[(methylsulfonyl)amino]phenyl}ethyl)amino]-2-methylpropyl}phenyl)-N-(2-phenylethyl)acetamide]
0.06 | C[C@H](Cc1cccc(CC(=O)NCc2ccc(C(F)(F)F)cc2)c1)NC[C@H](O)c1ccc(O)c(NS(C)(=O)=O)c1 [Example 45, 2-(3-{(2R)-2-[((2R)-2-Hydroxy-2-{4-hydroxy-3-[(methylsulfonyl)amino]phenyl}ethyl)amino]propyl}phenyl)-N-[4-(trifluoromethyl)benzyl]acetamide]
0.03 | COc1ccc(CNC(=O)Cc2cccc(CC(C)(C)NC[C@H](O)c3ccc(O)c(NS(C)(=O)=O)c3)c2)cc1 [Example 2, 2-(3-{2-[((2R)-2-hydroxy-2-{4-hydroxy-3-[(methylsulfonyl)amino]phenyl}ethyl)amino]-2-methylpropyl}phenyl)-N-(4-methoxybenzyl)acetamide]
0.02 | C[C@H](Cc1cccc(CC(=O)NCc2ccccn2)c1)NC[C@H](O)c1ccc(O)c(NS(C)(=O)=O)c1 [Example 60, 2-(3-{(2R)-2-[((2R)-2-Hydroxy-2-{4-hydroxy-3-[(methylsulfonyl)amino]phenyl}ethyl)amino]propyl}phenyl)-N-(pyridin-2-ylmethyl)acetamide]
